The values below come from US20160362399A1, “ARYL, HETEROARYL, AND HETEROCYCLIC COMPOUNDS FOR TREATMENT OF COMPLEMENT MEDIATED DISORDERS” (Achillion Pharmaceuticals, Inc., priority 2014, published 2016).

Molecules are shown by their SMILES. A value given as a limit tells only on which side of the number the result lay.

One may read the IC50 as the concentration at which inhibition is half-maximal.

T1 sequence (P00746 26-253): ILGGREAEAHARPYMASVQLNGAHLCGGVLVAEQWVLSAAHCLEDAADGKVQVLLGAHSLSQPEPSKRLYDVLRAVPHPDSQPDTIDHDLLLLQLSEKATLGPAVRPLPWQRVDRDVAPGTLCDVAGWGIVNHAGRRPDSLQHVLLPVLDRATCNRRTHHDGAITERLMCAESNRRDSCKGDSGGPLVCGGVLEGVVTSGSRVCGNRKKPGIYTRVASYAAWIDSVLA

One assay has as its target T1, Human factor D (Homo sapiens, UniProt P00746).
T1 construct: purified from human serum; purchased Complement Technology, Inc; host or cells: human serum
Description: Human Factor D Assay. The class given is biochemical.
Conditions: not given
The protocol: Other standard factor D inhibition assays are also available.
Human factor D (purified from human serum, Complement Technology, Inc.) at 80 nM final concentration is incubated with test compound at various concentrations for 5 minutes at room temperature in 50 mM Tris, 1M NaCl, pH 7.5. A synthetic substrate Z-L-Lys-SBzl and DTNB (Ellman's reagent) are added to final concentrations of 100 μM each. The increase in color is recorded at OD405 nm in a microplate in kinetic mode over 30 minutes with 30 second time points in a spectrofluorimeter. IC50 values are calculated by non-linear regression from the percentage of inhibition of complement factor D activity as a function of test compound concentration.
For `NC(=O)c1nn(CC(=O)N2C[C@H](F)C[C@H]2C(=O)N[C@@H]2CCC[C@@H]2OCc2ccccc2)c2ccc(-c3ccnnc3)cc12` [Compound 51, 1-(2-((2S,4R)-2-((1R,2S)-2-(benzyloxy)cyclopentylcarbamoyl)-4-fluoropyrrolidin-1-yl)-2-oxoethyl)-5-(pyridazin-4-yl)-1H-indazole-3-carboxamide], the IC50 was > 10 µM.

As to `CC(=O)c1cn(CC(=O)N2C[C@H](F)C[C@H]2C(=O)Nc2cccc(-c3ccccc3Cl)c2F)c2ccc(C3=CCN(C(C)=O)CC3)cc12` [Compound 28, (2S,4R)-1-(2-(3-acetyl-5-(1-acetyl-1,2,3,6-tetrahydropyridin-4-yl)-1H-indol-1-yl)acetyl)-N-(2′-chloro-2-fluorobiphenyl-3-yl)-4-fluoropyrrolidine-2-carboxamide], the IC50 was < 1 µM.

Staying with this assay, now noted: human factor D 80 nM, substrate Z-L-Lys-SBzl, assay of Example 7; read-out: IC50.
Take `CC(=O)c1cn(CC(=O)N2[C@@H]3C[C@@H]3C[C@H]2C(=O)Nc2cccc(Br)n2)c2ccc(-c3cnc(C)nc3)cc12` [Compound 132, (1R,3S,5R)-2-(2-(3-acetyl-5-(2-methylpyrimidin-5-yl)-1H-indol-1-yl)acetyl)-N-(6-bromopyridin-2-yl)-2-azabicyclo[3.1.0]hexane-3-carboxamide]: the IC50 is < 1 µM. Take `NC(=O)c1nn(CC(=O)N2C[C@H](F)C[C@H]2C(=O)Nc2ccccc2-c2nc3ccccc3s2)c2ccc(-c3ccnnc3)cc12` [Compound 41, 1-(2-((2S,4R)-2-(2-(benzo[d]thiazol-2-yl)phenylcarbamoyl)-4-fluoropyrrolidin-1-yl)-2-oxoethyl)-5-(pyridazin-4-yl)-1H-indazole-3-carboxamide]: the IC50 is > 10 µM. With `COc1ncc(-c2ccc3c(c2)c(C(N)=O)nn3CC(=O)N2C[C@H](F)C[C@H]2C(=O)Nc2cccc(-c3ccccc3Cl)c2F)cn1` [Compound 29, 1-(2-((2S,4R)-2-(2′-chloro-2-fluorobiphenyl-3-ylcarbamoyl)-4-fluoropyrrolidin-1-yl)-2-oxoethyl)-5-(2-methoxypyrimidin-5-yl)-1H-indazole-3-carboxamide], the concentration for half-maximal inhibition (IC50) is < 1 µM. Take `Cc1nc2sccn2c1-c1csc(NC(=O)[C@@H]2C[C@@H](F)CN2C(=O)Cn2nc(C(N)=O)c3cc(-c4ccnnc4)ccc32)n1` [Compound 58, 1-(2-((2S,4R)-4-fluoro-2-(4-(6-methylimidazo[2,1-b]thiazol-5-yl)thiazol-2-ylcarbamoyl)pyrrolidin-1-yl)-2-oxoethyl)-5-(pyridazin-4-yl)-1H-indazole-3-carboxamide]: the half-maximal inhibitory concentration (IC50) is > 10 µM.
